Consider 26 compounds from patent US8143290B2, “Chemical compounds 572” (AstraZeneca AB, priority 2006, dated 2012).

The assay deals with T1, recombinant human GR (Homo sapiens, UniProt P04150).
T1 construct: purchased Panvera/Invitrogen P2812 (kit P2893)
T1 sequence (P04150 1-777): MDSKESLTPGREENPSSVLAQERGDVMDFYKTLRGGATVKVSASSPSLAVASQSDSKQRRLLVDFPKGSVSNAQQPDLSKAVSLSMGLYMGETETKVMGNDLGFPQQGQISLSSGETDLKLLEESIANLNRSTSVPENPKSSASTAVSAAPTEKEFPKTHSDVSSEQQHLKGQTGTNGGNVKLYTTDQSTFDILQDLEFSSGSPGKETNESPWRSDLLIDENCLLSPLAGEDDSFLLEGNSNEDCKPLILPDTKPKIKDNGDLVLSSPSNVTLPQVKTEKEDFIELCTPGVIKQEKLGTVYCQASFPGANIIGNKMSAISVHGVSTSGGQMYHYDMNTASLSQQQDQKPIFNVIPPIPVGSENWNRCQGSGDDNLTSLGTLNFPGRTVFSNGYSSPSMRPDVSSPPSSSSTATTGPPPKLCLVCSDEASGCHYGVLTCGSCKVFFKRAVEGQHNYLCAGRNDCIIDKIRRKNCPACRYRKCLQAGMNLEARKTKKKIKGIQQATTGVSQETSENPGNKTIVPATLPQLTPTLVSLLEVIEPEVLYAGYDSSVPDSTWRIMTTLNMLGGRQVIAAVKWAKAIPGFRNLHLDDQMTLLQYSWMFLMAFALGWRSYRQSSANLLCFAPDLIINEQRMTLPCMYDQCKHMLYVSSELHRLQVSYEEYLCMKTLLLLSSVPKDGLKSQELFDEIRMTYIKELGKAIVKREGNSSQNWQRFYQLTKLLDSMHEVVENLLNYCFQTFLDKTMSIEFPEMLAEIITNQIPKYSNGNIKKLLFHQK
Put plainly: Human Glucocorticoid Receptor (GR) Assay, fluorescence polarization. It is filed as binding. To be noted: GS Red tracer, incubated 2 h at r.t., XLfit model 205, read-out: GRhuFL_FP_v2 Mean IC50. A digest of the protocol:
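After 2 h dark incubation at r.t., polarization reported displacement of the GS Red tracer from recombinant GR, in buffer with phosphate, molybdate, EDTA, DTT and Stabilizing Peptide. Controls: dexamethasone (100%) and DMSO (0%).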

As a reminder, the IC50 is the concentration that gives 50% inhibition.

`Cc1cnc(C(=O)N[C@@H](C)[C@H](Oc2ccc3c(cnn3-c3ccc(F)cc3)c2)c2cc(F)ccc2C)s1` [Example 201, N-[(1R,2S)-1-(5-fluoro-2-methyl-phenyl)-1-[1-(4-fluorophenyl)indazol-5-yl]oxy-propan-2-yl]-5-methyl-1,3-thiazole-2-carboxamide]: the IC50 amounted to 5.9 nM.

On to `COc1cccc([C@@H](Oc2ccc3c(cnn3-c3ccc(F)cc3)c2)[C@H](C)NC(=O)C(=O)N(C)C)c1` [Example 80, N-[(1R,2S)-1-[1-(4-Fluorophenyl)indazol-5-yl]oxy-1-(3-methoxyphenyl)propan-2-yl]-N′,N′-dimethyl-oxamide], for which the IC50 is 3.7 nM.

Turning to `C[C@H](NC(=O)C(F)(F)F)[C@H](Oc1ccc2c(cnn2-c2ccc(F)cc2)c1)c1ccc(F)c(F)c1` [Example 150, N-[(1R,2S)-1-(3,4-difluorophenyl)-1-[1-(4-fluorophenyl)indazol-5-yl]oxy-propan-2-yl]-2,2,2-trifluoro-acetamide], the IC50 was determined as 4.6 nM.

Regarding `CCC[C@H](NC(=O)C(C)(C)C)[C@H](Oc1ccc2c(cnn2-c2ccc(F)cc2)c1)c1ccccc1` [Example 92, N-((1R,2S)-1-(1-(4-fluorophenyl)-1H-indazol-5-yloxy)-1-phenylpentan-2-yl)pivalamide], the IC50 is 3.8 nM.

For `COCC(=O)N[C@@H](C)[C@H](Oc1ccc2c(cnn2-c2ccccn2)c1)c1ccccc1` [Example 118, 2-Methoxy-N-[1-methyl-2-phenyl-2-(1-pyridin-2-yl-1H-indazol-5-yloxy)-ethyl]acetamide], the IC50 was determined as 2.9 nM.

For the compound `Cc1cnc(C(=O)N[C@@H](C)[C@H](Oc2ccc3c(cnn3-c3ccc(F)cc3)c2)c2ccc(C(C)(C)C)cc2)s1` [Example 208, N-[(1R,2S)-1-[1-(4-fluorophenyl)indazol-5-yl]oxy-1-(4-tert-butylphenyl)propan-2-yl]-5-methyl-1,3-thiazole-2-carboxamide], the IC50 was 8.2 nM.

`C[C@H](NC(=O)C1CCC1)[C@H](Oc1ccc2c(cnn2-c2ccc(F)cc2)c1)c1ccccc1` [Example 43, N-[(1R,2S)-1-[1-(4-fluorophenyl)indazol-5-yl]oxy-1-phenyl-propan-2-yl]cyclobutanecarboxamide]: the IC50 came out at 2.2 nM.

Consider `COc1cccc([C@@H](Oc2ccc3c(cnn3-c3ccc(F)cc3)c2)[C@H](C)NC(=O)c2nnc(C)o2)c1` [Example 277, N-[(1R,2S)-1-[1-(4-fluorophenyl)indazol-5-yl]oxy-1-(3-methoxyphenyl)propan-2-yl]-5-methyl-1,3,4-oxadiazole-2-carboxamide], for which the IC50 came to 4.7 nM.

Take `CC[S+]([O-])Cc1ccc([C@@H](Oc2ccc3c(cnn3-c3ccc(F)cc3)c2)[C@H](C)NC(=O)C(F)(F)F)cc1` (stereo partly drawn) [Example 26, N-[(1R,2S)-1-[4-(ethylsulfinylmethyl)phenyl]-1-[1-(4-fluorophenyl)indazol-5-yl]oxy-propan-2-yl]-2,2,2-trifluoro-acetamide]: the IC50 turned out to be 5.9 nM.

Regarding `C[C@H](NC(=O)C(C)(F)F)[C@H](Oc1ccc2c(cnn2-c2ccc(F)cc2)c1)c1cccc(Cl)c1` [Example 232, N-[(1R,2S)-1-(3-chlorophenyl)-1-[1-(4-fluorophenyl)indazol-5-yl]oxy-propan-2-yl]-2,2-difluoro-propanamide], the IC50 came out at 5.4 nM.

As for `C[C@H](NC(=O)C(Cl)(Cl)Cl)[C@H](Oc1ccc2c(cnn2-c2ccc(F)cc2)c1)c1ccccc1` [Example 40, 2,2,2-Trichloro-N-[(1R,2S)-1-[1-(4-fluorophenyl)indazol-5-yl]oxy-1-phenyl-propan-2-yl]acetamide], the IC50 was 3.4 nM.

Regarding `C[C@H](NC(=O)C(F)(F)F)[C@@H](Cc1ccccc1)Oc1ccc2c(cnn2-c2ccc(F)cc2)c1` [Example 72, 2,2,2-Trifluoro-N-[(2S,3R)-3-[1-(4-fluorophenyl)indazol-5-yl]oxy-4-phenyl-butan-2-yl]acetamide], the IC50 stood at 3.7 nM.

Regarding `COc1cccc([C@@H](Oc2ccc3c(cnn3-c3ccc(F)cc3)c2)[C@H](C)NC(=O)c2cc3ccccn3n2)c1` [Example 293, N-[(1R,2S)-1-[1-(4-fluorophenyl)indazol-5-yl]oxy-1-(3-methoxyphenyl)propan-2-yl]-1,9-diazabicyclo[4.3.0]nona-2,4,6,8-tetraene-8-carboxamide], the IC50 was determined as 4.4 nM.

With `Cc1cc(F)ccc1[C@@H](Oc1ccc2c(cnn2-c2ccc(F)cc2)c1)[C@H](C)NC(=O)C(C)(F)F` [Example 233, 2,2-difluoro-N-[(1R,2S)-1-(4-fluoro-2-methyl-phenyl)-1-[1-(4-fluorophenyl)indazol-5-yl]oxy-propan-2-yl]propanamide], the IC50 stood at 6.1 nM.

For the compound `C[C@H](NC(=O)C(F)(F)F)[C@H](Oc1ccc2c(cnn2-c2cccc(CN(C)C)c2)c1)c1ccccc1` [Example 146, N-((1R,2S)-1-(1-(3-((dimethylamino)methyl)phenyl)-1H-indazol-5-yloxy)-1-phenylpropan-2-yl)-2,2,2-trifluoroacetamide], the IC50 stood at 78 nM.

As to `COc1ccc([C@@H](Oc2ccc3c(cnn3-c3ccc(F)cc3)c2)[C@H](C)NC(=O)C2(C)CC2)c(C)c1` [Example 265, N-[(1R,2S)-1-[1-(4-fluorophenyl)indazol-5-yl]oxy-1-(4-methoxy-2-methyl-phenyl)propan-2-yl]-1-methyl-cyclopropane-1-carboxamide], the IC50 was found to be 25 nM.

As to `CCc1ccc([C@@H](Oc2ccc3c(cnn3-c3ccc(F)cc3)c2)[C@H](C)NC(=O)C(C)C)cc1` [Example 51, N-[(1R,2S)-1-(4-ethylphenyl)-1-[1-(4-fluorophenyl)indazol-5-yl]oxy-propan-2-yl]-2-methyl-propanamide], the IC50 was determined as 4.3 nM.

Turning to `C[C@H](NC(=O)C(C)(F)F)[C@H](Oc1ccc2c(cnn2-c2ccc(F)cc2)c1)c1cc(F)cc(Cl)c1` [Example 238, N-[(1R,2S)-1-(3-chloro-5-fluoro-phenyl)-1-[1-(4-fluorophenyl)indazol-5-yl]oxy-propan-2-yl]-2,2-difluoro-propanamide], the IC50 was determined as 6.8 nM.

Regarding `COc1ccc(F)cc1[C@@H](Oc1ccc2c(cnn2-c2ccc(F)cc2)c1)[C@H](C)NC(=O)C1(C)CC1` (stereo in doubt) [Example 268, N-[(1R,2S)-1-(5-fluoro-2-methoxy-phenyl)-1-[1-(4-fluorophenyl)indazol-5-yl]oxy-propan-2-yl]-1-methyl-cyclopropane-1-carboxamide], the IC50 worked out at 3.1 nM.

For `COc1cccc([C@@H](Oc2ccc3c(cnn3-c3ccc(F)cc3)c2)[C@H](C)NC(=O)c2ncco2)c1` [Example 84, N-((1R,2S)-1-(1-(4-fluorophenyl)-1H-indazol-5-yloxy)-1-(3-methoxyphenyl)propan-2-yl)oxazole-2-carboxamide], the IC50 came out at 2.3 nM.

For the compound `C[C@H](NC(=O)C(F)(F)F)[C@H](Oc1ccc2c(cnn2-c2ccc(CO)cc2)c1)c1ccccc1` [Example 141, 2,2,2-trifluoro-N-((1R,2S)-1-(1-(4-(hydroxymethyl)phenyl)-1H-indazol-5-yloxy)-1-phenylpropan-2-yl)acetamide], the IC50 worked out at 3.3 nM.

`Cc1ccc([C@@H](Oc2ccc3c(cnn3-c3ccc(F)cc3)c2)[C@H](C)NC(=O)C(C)(F)F)cc1F` [Example 229, 2,2-difluoro-N-[(1R,2S)-1-(3-fluoro-4-methyl-phenyl)-1-[1-(4-fluorophenyl)indazol-5-yl]oxy-propan-2-yl]propanamide]: the IC50 turned out to be 5.5 nM.

In the case of `COc1cccc([C@@H](Oc2ccc3c(cnn3-c3ccc(F)cc3)c2)[C@H](C)NC(=O)c2cccn2C)c1` [Example 133, N-[(1R,2S)-1-[1-(4-fluorophenyl)indazol-5-yl]oxy-1-(3-methoxyphenyl)propan-2-yl]-1-methyl-pyrrole-2-carboxamide], the IC50 was 3.3 nM.

For the compound `C[C@H](NC(=O)[C@@H]1CCCN1)[C@H](Oc1ccc2c(cnn2-c2ccc(F)cc2)c1)c1ccc2c(c1)OCCO2` [Example 125, (S)-N-((1R,2S)-1-(2,3-dihydrobenzo[b][1,4]dioxin-6-yl)-1-(1-(4-fluorophenyl)-1H-indazol-5-yloxy)propan-2-yl)pyrrolidine-2-carboxamide], the IC50 turned out to be 6.4 nM.

As to `C[C@H](NC(=O)C1(C)CC1)[C@H](Oc1ccc2c(cnn2-c2ccc(F)cc2)c1)c1cc(F)cc(Cl)c1` [Example 223, N-[(1R,2S)-1-(3-chloro-5-fluoro-phenyl)-1-[1-(4-fluorophenyl)indazol-5-yl]oxy-propan-2-yl]-1-methyl-cyclopropane-1-carboxamide], the IC50 was found to be 3.9 nM.

As for `C[C@H](NC(=O)C(F)(F)F)[C@H](Oc1ccc2c(cnn2-c2cccc(CN3CCOCC3)c2)c1)c1ccccc1` [Example 145, 2,2,2-trifluoro-N-((1R,2S)-1-(1-(3-(morpholinomethyl)phenyl)-1H-indazol-5-yloxy)-1-phenylpropan-2-yl)acetamide], the IC50 was determined as 5.5 nM.
